Here are results for one compound from ChEMBL document CHEMBL1142413.

The species named for experiment [1] is Homo sapiens. The experiment is described as follows: Ratio of IC50 for human CB1R S383A mutant to IC50 for human wild type CB1R.
The species entered for experiment [2] is Homo sapiens. The experiment is described as follows: Ratio of IC50 for human CB1R F200L mutant to IC50 for human wild type CB1R.
For experiment [3], the species on record is Homo sapiens. As to the kind of experiment: Ratio of IC50 for human CB1R K192L mutant to IC50 for human wild type CB1R.
The species named for experiment [4] is Homo sapiens. The experiment is described as follows: Ratio of IC50 for human CB1R W279A mutant to IC50 for human wild type CB1R.

For the compound `Cc1c(C(=O)NN2CCCCC2)nn(-c2ccc(Cl)cc2Cl)c1-c1ccc(Cl)cc1`, the Fold change is under 2 in the experiment listed under Homo sapiens [1], 3 in the experiment listed under Homo sapiens [2], 17 in the experiment filed under Homo sapiens [3] and over 1000 in the experiment listed under Homo sapiens [4].
